Source: patent publication US20100203576A1, “PROCESS FOR DETERMINATION OF MICROORGANISMS' RESISTANCE TO ANTIBIOTICS” (INTELLIGENCE ARTIFICIELLE APPLICATIONS, priority 2009, published 2010)

System: Escherichia coli
Assay: Antibiogram resistance of similar Escherichia coli strains recorded in the data base
Assay type: cell-based
Design: key to Resistance, MO list in data base 1 / Resistance, MO list in data base 2 / Resistance, MO list in data base 3 / Resistance, MO list in data base 4: R: significant resistance; I: average resistance; S: without resistance
Settings: for Resistance of Escherichia coli species 1 to 4 (in words): Escherichia coli species 1 to 4, similar between 98.5 to 83.6% to the urine specimen strain; for Resistance, MO list in data base 1: Escherichia coli strain 1, similarity 98.5%; for Resistance, MO list in data base 2: Escherichia coli strain 2, similarity 97.8%; for Resistance, MO list in data base 3: Escherichia coli strain 3, similarity 84.2%; for Resistance, MO list in data base 4: Escherichia coli strain 4, similarity 83.6%

Compound	Resistance of Escherichia coli species 1 to 4 (in words)	Resistance, MO list in data base 1	Resistance, MO list in data base 2	Resistance, MO list in data base 3	Resistance, MO list in data base 4
gentamicin	not resistant	S	S	S	S
CO/N=C(\C(=O)N[C@@H]1C(=O)N2C(C(=O)O)=C(CSc3nc(=O)c(O)nn3C)CS[C@H]12)c1csc(N)n1 [CETRIAXONE, cetriaxone]	not resistant	S	S	S	S
CCN1CCN(C(=O)N[C@@H](C(=O)N[C@@H]2C(=O)N3[C@@H]2SC(C)(C)[C@@H]3C(=O)O)c2ccccc2)C(=O)C1=O [PIPERACILLIN, piperacillin]	resistant	R	R	R	R
CC(=O)OCC1=C(C(=O)O)N2C(=O)[C@@H](NC(=O)Cc3cccs3)[C@H]2SC1 [CEPHALOTIN, cefalotin]	resistant	R	R	R	R
O=C(O)c1cn(C2CC2)c2cc(N3CCNCC3)c(F)cc2c1=O [CIPROFLOXACIN]		R	R		I
CC1(C)S[C@@H]2[C@H](NC(=O)[C@H](N)c3ccc(O)cc3)C(=O)N2[C@H]1C(=O)O [AMOXICILLIN, amoxicillin]	resistant	R	R	R	R
